Earlier results as cited in patent US5705486A, “Isolation of novel peptides from green barley leaf extract and use same to inhibit human platelet aggregation” (Hagiwara; Yoshihide, priority 1996, dated 1998).

Test system: rat anterior pituitary cells
Conditions: in vitro

## Cc1c(C)c2c(c(C)c1OC(=O)CCC(=O)O)CC[C@@](C)(CCC[C@H](C)CCC[C@H](C)CCCC(C)C)O2 [α-tocopherol succinate]
Badamchian et al 1994
  release of growth hormone and/or prolactin from rat anterior pituitary cells: enhances the release
Badamchian et al 1995
  prolactin release from rat anterior pituitary cells: significant increase
